Measurements from the kinase profiling compilation of Christmann-Franck et al. (2016).

How the values were obtained:
Assay in all cases: radiometric filter-binding kinase assay, Kinase HotSpot
Conditions in all cases: compound 0.5 µM; ATP 10 µM
HIPK4 (human) = HIPK4 (human) (UniProt Q8NE63)
SRMS (human) = SRMS (human) (UniProt Q9H3Y6)
DDR2 (human) = DDR2 (human) (UniProt Q16832)
ULK2 (human) = ULK2 (human) (UniProt Q8IYT8)
NEK9 (human) = NEK9 (human) (UniProt Q8TD19)
BRSK2 (human) = BRSK2 (human) (UniProt Q8IWQ3)
CSNK1D (human) = CSNK1D (human) (UniProt P48730)
CDK4 CCND1 (human) = CDK4 CCND1 (human) (UniProt P24385+P11802)
CSNK2A2 (human) = CSNK2A2 (human) (UniProt P19784)
PIM1 (human) = PIM1 (human) (UniProt P11309)
FRK (human) = FRK (human) (UniProt P42685)
IKBKE (human) = IKBKE (human) (UniProt Q14164)
MERTK (human) = MERTK (human) (UniProt Q12866)
ERBB2 (human) = ERBB2 (human) (UniProt P04626)
RPS6KA5 KD2 (human) = RPS6KA5 KD2 (human) (UniProt O75582)
PRKD1 (human) = PRKD1 (human) (UniProt Q15139)
PRKD1 (human), sequence (Q15139 whole entry, looked up): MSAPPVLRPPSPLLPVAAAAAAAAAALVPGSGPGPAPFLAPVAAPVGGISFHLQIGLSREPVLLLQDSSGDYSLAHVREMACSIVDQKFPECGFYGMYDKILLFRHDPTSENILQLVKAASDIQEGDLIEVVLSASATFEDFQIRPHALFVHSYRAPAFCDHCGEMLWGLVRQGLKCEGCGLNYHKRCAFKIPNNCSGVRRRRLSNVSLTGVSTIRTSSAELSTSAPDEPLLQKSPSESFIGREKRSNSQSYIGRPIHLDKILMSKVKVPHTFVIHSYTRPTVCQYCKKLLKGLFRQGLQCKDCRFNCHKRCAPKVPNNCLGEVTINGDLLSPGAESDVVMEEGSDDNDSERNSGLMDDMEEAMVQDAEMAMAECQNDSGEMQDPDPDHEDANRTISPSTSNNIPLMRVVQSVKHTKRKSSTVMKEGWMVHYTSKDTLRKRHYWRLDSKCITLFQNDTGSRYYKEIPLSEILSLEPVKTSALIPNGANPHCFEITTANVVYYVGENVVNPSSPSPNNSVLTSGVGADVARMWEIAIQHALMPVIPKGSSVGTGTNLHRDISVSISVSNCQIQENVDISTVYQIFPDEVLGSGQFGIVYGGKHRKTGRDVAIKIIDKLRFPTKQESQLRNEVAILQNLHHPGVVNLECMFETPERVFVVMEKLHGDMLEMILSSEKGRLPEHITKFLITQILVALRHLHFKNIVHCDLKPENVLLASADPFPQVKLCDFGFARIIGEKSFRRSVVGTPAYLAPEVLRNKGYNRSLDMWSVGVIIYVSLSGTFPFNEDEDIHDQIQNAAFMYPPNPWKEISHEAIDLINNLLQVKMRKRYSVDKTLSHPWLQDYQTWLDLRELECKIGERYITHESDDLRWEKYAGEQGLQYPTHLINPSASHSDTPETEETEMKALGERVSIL

CLK4 (human) = CLK4 (human) (UniProt Q9HAZ1)
MINK1 (human) = MINK1 (human) (UniProt Q8N4C8)
MAPK9 (human) = MAPK9 (human) (UniProt P45984)
TSSK2 (human) = TSSK2 (human) (UniProt Q96PF2)
PIM2 (human) = PIM2 (human) (UniProt Q9P1W9)
BLK (human) = BLK (human) (UniProt P51451)
WNK2 (human) = WNK2 (human) (UniProt Q9Y3S1)
WNK2 (human), sequence (Q9Y3S1 whole entry, looked up): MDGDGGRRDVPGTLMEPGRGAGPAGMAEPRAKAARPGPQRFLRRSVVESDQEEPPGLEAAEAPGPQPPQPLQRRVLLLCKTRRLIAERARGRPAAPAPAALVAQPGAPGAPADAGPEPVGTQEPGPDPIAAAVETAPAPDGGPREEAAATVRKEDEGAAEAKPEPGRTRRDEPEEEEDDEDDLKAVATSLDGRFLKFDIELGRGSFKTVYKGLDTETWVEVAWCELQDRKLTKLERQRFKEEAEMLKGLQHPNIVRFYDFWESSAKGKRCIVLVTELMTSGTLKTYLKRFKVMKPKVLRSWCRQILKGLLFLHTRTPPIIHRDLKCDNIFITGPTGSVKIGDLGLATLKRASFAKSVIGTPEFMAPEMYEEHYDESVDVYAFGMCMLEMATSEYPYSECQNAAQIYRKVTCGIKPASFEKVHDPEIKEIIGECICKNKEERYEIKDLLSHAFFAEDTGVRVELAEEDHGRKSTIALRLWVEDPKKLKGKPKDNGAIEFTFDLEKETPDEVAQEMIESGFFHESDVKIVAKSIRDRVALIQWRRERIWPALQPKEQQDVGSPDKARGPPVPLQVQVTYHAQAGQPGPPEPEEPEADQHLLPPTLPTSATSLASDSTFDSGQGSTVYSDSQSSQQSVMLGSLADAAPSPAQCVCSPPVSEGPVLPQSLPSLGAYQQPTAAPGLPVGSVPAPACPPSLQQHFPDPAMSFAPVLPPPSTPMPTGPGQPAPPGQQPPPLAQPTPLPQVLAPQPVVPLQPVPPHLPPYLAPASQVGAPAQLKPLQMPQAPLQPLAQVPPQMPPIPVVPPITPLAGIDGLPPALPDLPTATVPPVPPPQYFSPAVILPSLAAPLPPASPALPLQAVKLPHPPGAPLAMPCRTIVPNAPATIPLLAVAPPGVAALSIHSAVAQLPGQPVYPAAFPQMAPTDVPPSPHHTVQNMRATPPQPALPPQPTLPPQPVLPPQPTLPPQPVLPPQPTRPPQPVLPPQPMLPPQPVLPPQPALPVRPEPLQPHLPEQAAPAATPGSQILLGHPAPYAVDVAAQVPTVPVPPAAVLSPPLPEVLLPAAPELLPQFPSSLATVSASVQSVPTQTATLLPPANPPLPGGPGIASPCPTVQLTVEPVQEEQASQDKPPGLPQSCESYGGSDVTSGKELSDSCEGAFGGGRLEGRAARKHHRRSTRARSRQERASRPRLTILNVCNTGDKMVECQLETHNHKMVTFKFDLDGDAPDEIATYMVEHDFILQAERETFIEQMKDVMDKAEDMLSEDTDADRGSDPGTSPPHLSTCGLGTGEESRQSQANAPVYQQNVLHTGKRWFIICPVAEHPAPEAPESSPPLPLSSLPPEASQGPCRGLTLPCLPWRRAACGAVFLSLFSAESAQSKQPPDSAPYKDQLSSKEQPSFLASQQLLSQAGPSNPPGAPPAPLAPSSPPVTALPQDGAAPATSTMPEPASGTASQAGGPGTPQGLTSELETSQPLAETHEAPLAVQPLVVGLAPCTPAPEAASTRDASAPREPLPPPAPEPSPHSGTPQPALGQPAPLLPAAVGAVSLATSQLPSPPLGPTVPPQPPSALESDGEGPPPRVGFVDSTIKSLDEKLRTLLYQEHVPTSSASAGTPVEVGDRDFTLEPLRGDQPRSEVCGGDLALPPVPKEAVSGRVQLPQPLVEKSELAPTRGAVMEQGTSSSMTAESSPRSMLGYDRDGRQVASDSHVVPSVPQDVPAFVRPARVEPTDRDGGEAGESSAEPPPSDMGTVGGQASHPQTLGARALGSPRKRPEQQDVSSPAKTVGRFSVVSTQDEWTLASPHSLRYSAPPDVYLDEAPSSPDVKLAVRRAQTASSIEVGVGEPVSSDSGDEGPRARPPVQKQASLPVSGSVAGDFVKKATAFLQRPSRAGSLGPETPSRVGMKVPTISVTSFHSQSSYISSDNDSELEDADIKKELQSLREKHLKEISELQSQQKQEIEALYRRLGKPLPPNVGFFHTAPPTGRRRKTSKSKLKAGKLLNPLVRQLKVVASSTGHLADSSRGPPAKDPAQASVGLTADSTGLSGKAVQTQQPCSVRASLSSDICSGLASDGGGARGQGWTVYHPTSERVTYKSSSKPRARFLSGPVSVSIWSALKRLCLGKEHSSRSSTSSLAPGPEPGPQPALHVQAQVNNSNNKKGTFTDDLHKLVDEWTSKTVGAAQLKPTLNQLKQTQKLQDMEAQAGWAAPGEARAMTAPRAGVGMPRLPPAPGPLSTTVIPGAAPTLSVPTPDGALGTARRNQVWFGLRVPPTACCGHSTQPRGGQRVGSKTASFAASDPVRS

MAP3K14 (human) = MAP3K14 (human) (UniProt Q99558)
PASK (human) = PASK (human) (UniProt Q96RG2)
EPHB4 (human) = EPHB4 (human) (UniProt P54760)
SRPK2 (human) = SRPK2 (human) (UniProt P78362)
MUSK (human) = MUSK (human) (UniProt O15146)
DAPK2 (human) = DAPK2 (human) (UniProt Q9UIK4)
TGFBR2 (human) = TGFBR2 (human) (UniProt P37173)
EPHA5 (human) = EPHA5 (human) (UniProt P54756)
EPHA5 (human), sequence (P54756 whole entry, looked up): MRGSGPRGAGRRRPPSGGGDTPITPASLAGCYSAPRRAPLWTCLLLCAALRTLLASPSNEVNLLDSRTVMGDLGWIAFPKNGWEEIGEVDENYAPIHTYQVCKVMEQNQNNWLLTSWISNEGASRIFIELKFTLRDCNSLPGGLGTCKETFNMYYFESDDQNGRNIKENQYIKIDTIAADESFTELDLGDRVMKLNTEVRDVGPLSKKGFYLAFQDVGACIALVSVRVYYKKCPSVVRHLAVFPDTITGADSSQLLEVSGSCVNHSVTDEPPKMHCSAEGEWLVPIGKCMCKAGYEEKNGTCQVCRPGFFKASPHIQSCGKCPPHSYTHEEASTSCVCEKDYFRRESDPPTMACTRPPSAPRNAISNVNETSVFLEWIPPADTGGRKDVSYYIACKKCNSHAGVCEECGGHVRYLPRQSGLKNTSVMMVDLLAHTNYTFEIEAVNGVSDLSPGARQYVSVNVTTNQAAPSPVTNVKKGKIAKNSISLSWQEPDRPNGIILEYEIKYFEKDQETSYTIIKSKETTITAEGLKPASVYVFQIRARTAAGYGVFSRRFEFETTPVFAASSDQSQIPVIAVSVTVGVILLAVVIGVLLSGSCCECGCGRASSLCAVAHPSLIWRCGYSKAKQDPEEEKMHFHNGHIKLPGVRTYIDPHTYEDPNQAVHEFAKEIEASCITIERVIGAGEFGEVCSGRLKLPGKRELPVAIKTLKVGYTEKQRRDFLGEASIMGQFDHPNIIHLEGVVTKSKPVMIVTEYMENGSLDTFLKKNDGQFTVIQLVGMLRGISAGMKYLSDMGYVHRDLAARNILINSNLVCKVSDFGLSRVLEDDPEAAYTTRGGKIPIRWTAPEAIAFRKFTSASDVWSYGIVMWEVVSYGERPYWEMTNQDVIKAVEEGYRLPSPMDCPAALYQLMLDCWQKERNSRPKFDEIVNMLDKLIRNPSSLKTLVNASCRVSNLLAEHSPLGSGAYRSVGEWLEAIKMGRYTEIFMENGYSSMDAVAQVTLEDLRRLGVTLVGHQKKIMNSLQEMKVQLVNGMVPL

PDGFRA (human) = PDGFRA (human) (UniProt P16234)
MARK2 (human) = MARK2 (human) (UniProt Q7KZI7)
MAP2K1 (human) = MAP2K1 (human) (UniProt Q02750)
GRK4 (human) = GRK4 (human) (UniProt P32298)
MAP4K4 (human) = MAP4K4 (human) (UniProt O95819)
CHEK2 (human) = CHEK2 (human) (UniProt O96017)
CHEK2 (human), sequence (O96017 whole entry, looked up): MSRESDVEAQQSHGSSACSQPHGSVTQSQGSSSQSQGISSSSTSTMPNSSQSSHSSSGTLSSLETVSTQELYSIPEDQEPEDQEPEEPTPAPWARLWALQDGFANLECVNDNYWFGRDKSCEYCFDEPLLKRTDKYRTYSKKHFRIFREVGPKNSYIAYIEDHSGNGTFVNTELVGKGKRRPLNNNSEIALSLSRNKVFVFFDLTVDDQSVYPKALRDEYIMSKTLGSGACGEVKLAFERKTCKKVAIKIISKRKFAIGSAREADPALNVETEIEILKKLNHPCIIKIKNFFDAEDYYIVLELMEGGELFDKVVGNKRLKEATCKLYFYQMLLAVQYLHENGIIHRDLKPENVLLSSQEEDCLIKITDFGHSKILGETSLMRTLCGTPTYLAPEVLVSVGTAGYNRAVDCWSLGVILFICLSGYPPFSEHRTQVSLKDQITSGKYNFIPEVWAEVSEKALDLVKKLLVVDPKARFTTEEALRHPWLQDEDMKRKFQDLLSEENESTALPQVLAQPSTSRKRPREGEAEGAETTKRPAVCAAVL

CSF1R (human) = CSF1R (human) (UniProt P07333)
DYRK1A (human) = DYRK1A (human) (UniProt Q13627)
NEK6 (human) = NEK6 (human) (UniProt Q9HC98)
NEK6 (human), sequence (Q9HC98 whole entry, looked up): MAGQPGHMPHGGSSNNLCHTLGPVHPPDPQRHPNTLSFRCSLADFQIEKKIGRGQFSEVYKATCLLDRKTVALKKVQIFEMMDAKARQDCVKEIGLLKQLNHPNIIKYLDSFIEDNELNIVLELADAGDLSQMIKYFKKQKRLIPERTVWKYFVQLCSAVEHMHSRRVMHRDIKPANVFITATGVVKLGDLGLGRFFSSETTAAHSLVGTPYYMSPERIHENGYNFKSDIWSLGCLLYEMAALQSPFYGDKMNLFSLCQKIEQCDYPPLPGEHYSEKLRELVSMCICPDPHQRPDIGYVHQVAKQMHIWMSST

MAPKAPK5 (human) = MAPKAPK5 (human) (UniProt Q8IW41)
PAK1 (human) = PAK1 (human) (UniProt Q13153)

## COc1ccc(C(=O)Nc2sc3c(c2C(N)=O)CCCC3)cc1OC
HIPK4 (human)
  residual activity: 103%
SRMS (human)
  residual activity: 91%
DDR2 (human)
  residual activity: 102%
ULK2 (human)
  residual activity: 105%
NEK9 (human)
  residual activity: 94.6%
BRSK2 (human)
  residual activity: 97.9%
CSNK1D (human)
  residual activity: 103%
CDK4 CCND1 (human)
  residual activity: 95.9%
CSNK2A2 (human)
  residual activity: 104%
PIM1 (human)
  residual activity: 98.9%
FRK (human)
  residual activity: 88.8%
IKBKE (human)
  residual activity: 106%
MERTK (human)
  residual activity: 85.4%
ERBB2 (human)
  residual activity: 93.3%
RPS6KA5 KD2 (human)
  residual activity: 105%
PRKD1 (human)
  residual activity: 99.6%
CLK4 (human)
  residual activity: 86.8%
MINK1 (human)
  residual activity: 85%
MAPK9 (human)
  residual activity: 118%
TSSK2 (human)
  residual activity: 94.6%
PIM2 (human)
  residual activity: 98.5%
BLK (human)
  residual activity: 102%
WNK2 (human)
  residual activity: 100%
MAP3K14 (human)
  residual activity: 88%
PASK (human)
  residual activity: 101%
EPHB4 (human)
  residual activity: 93.9%
SRPK2 (human)
  residual activity: 97.6%
MUSK (human)
  residual activity: 79.4%
DAPK2 (human)
  residual activity: 106%
TGFBR2 (human)
  residual activity: 134%
EPHA5 (human)
  residual activity: 104%
PDGFRA (human)
  residual activity: 96.4%
MARK2 (human)
  residual activity: 98.7%
MAP2K1 (human)
  residual activity: 99.1%
GRK4 (human)
  residual activity: 95.1%
MAP4K4 (human)
  residual activity: 79.9%
CHEK2 (human)
  residual activity: 93%
CSF1R (human)
  residual activity: 90.2%
DYRK1A (human)
  residual activity: 97.4%
NEK6 (human)
  residual activity: 92.7%
MAPKAPK5 (human)
  residual activity: 86.4%
PAK1 (human)
  residual activity: 94%

## COc1cc2ncnc(Nc3ccc(OCc4ccccc4)cc3)c2cc1OC
HIPK4 (human)
  residual activity: 100%
SRMS (human)
  residual activity: 104%
DDR2 (human)
  residual activity: 100%
ULK2 (human)
  residual activity: 97%
NEK9 (human)
  residual activity: 104%
BRSK2 (human)
  residual activity: 98.7%
CSNK1D (human)
  residual activity: 96.6%
CDK4 CCND1 (human)
  residual activity: 99.2%
CSNK2A2 (human)
  residual activity: 95.3%
PIM1 (human)
  residual activity: 102%
FRK (human)
  residual activity: 104%
IKBKE (human)
  residual activity: 99.7%
MERTK (human)
  residual activity: 19.5%
ERBB2 (human)
  residual activity: 42.6%
RPS6KA5 KD2 (human)
  residual activity: 103%
PRKD1 (human)
  residual activity: 101%
CLK4 (human)
  residual activity: 99.5%
MINK1 (human)
  residual activity: 94.3%
MAPK9 (human)
  residual activity: 106%
TSSK2 (human)
  residual activity: 104%
PIM2 (human)
  residual activity: 97.6%
BLK (human)
  residual activity: 88.2%
WNK2 (human)
  residual activity: 91.6%
MAP3K14 (human)
  residual activity: 84.4%
PASK (human)
  residual activity: 98.6%
EPHB4 (human)
  residual activity: 94.6%
SRPK2 (human)
  residual activity: 92.3%
MUSK (human)
  residual activity: 99.3%
DAPK2 (human)
  residual activity: 99.9%
TGFBR2 (human)
  residual activity: 121%
EPHA5 (human)
  residual activity: 105%
PDGFRA (human)
  residual activity: 91.3%
MARK2 (human)
  residual activity: 108%
MAP2K1 (human)
  residual activity: 94.7%
GRK4 (human)
  residual activity: 106%
MAP4K4 (human)
  residual activity: 103%
CHEK2 (human)
  residual activity: 14.2%
CSF1R (human)
  residual activity: 97.8%
DYRK1A (human)
  residual activity: 105%
NEK6 (human)
  residual activity: 97.6%
MAPKAPK5 (human)
  residual activity: 100%
PAK1 (human)
  residual activity: 93.2%

## Cc1cncc2cccc(S(=O)(=O)N3CCCN(C(=O)CN)C[C@H]3C)c12
HIPK4 (human)
  residual activity: 91.1%
SRMS (human)
  residual activity: 106%
DDR2 (human)
  residual activity: 103%
ULK2 (human)
  residual activity: 98.8%
NEK9 (human)
  residual activity: 98.6%
BRSK2 (human)
  residual activity: 85.4%
CSNK1D (human)
  residual activity: 107%
CDK4 CCND1 (human)
  residual activity: 114%
CSNK2A2 (human)
  residual activity: 99.3%
PIM1 (human)
  residual activity: 105%
FRK (human)
  residual activity: 114%
IKBKE (human)
  residual activity: 95%
MERTK (human)
  residual activity: 95.4%
ERBB2 (human)
  residual activity: 99.7%
RPS6KA5 KD2 (human)
  residual activity: 100%
PRKD1 (human)
  residual activity: 96.7%
CLK4 (human)
  residual activity: 105%
MINK1 (human)
  residual activity: 97.2%
MAPK9 (human)
  residual activity: 106%
TSSK2 (human)
  residual activity: 99.6%
PIM2 (human)
  residual activity: 104%
BLK (human)
  residual activity: 97.7%
WNK2 (human)
  residual activity: 98%
MAP3K14 (human)
  residual activity: 109%
PASK (human)
  residual activity: 105%
EPHB4 (human)
  residual activity: 85.1%
SRPK2 (human)
  residual activity: 97.1%
MUSK (human)
  residual activity: 88.7%
DAPK2 (human)
  residual activity: 103%
TGFBR2 (human)
  residual activity: 132%
EPHA5 (human)
  residual activity: 95.1%
PDGFRA (human)
  residual activity: 93.5%
MARK2 (human)
  residual activity: 89.1%
MAP2K1 (human)
  residual activity: 94.9%
GRK4 (human)
  residual activity: 94%
MAP4K4 (human)
  residual activity: 87.6%
CHEK2 (human)
  residual activity: 96.2%
CSF1R (human)
  residual activity: 95.6%
DYRK1A (human)
  residual activity: 93.1%
NEK6 (human)
  residual activity: 93.3%
MAPKAPK5 (human)
  residual activity: 94.2%
PAK1 (human)
  residual activity: 98.1%

## Cc1nc(-c2ccccc2)c(-c2ccncc2)o1
HIPK4 (human)
  residual activity: 102%
SRMS (human)
  residual activity: 102%
DDR2 (human)
  residual activity: 97.4%
ULK2 (human)
  residual activity: 102%
NEK9 (human)
  residual activity: 97.2%
BRSK2 (human)
  residual activity: 95%
CSNK1D (human)
  residual activity: 44%
CDK4 CCND1 (human)
  residual activity: 114%
CSNK2A2 (human)
  residual activity: 89.8%
PIM1 (human)
  residual activity: 105%
FRK (human)
  residual activity: 103%
IKBKE (human)
  residual activity: 102%
MERTK (human)
  residual activity: 85.6%
ERBB2 (human)
  residual activity: 105%
RPS6KA5 KD2 (human)
  residual activity: 107%
PRKD1 (human)
  residual activity: 95.6%
CLK4 (human)
  residual activity: 121%
MINK1 (human)
  residual activity: 97.9%
MAPK9 (human)
  residual activity: 98.2%
TSSK2 (human)
  residual activity: 90.1%
PIM2 (human)
  residual activity: 110%
BLK (human)
  residual activity: 95.4%
WNK2 (human)
  residual activity: 101%
MAP3K14 (human)
  residual activity: 96.2%
PASK (human)
  residual activity: 98.1%
EPHB4 (human)
  residual activity: 84.8%
SRPK2 (human)
  residual activity: 92.3%
MUSK (human)
  residual activity: 95.9%
DAPK2 (human)
  residual activity: 106%
TGFBR2 (human)
  residual activity: 133%
EPHA5 (human)
  residual activity: 91.4%
PDGFRA (human)
  residual activity: 96.3%
MARK2 (human)
  residual activity: 94.3%
MAP2K1 (human)
  residual activity: 90.7%
GRK4 (human)
  residual activity: 94.3%
MAP4K4 (human)
  residual activity: 85.1%
CHEK2 (human)
  residual activity: 96.6%
CSF1R (human)
  residual activity: 104%
DYRK1A (human)
  residual activity: 98.4%
NEK6 (human)
  residual activity: 94.4%
MAPKAPK5 (human)
  residual activity: 99.2%
PAK1 (human)
  residual activity: 98.7%
